In ChEMBL document CHEMBL3758163, “Extended structure-activity study of thienopyrimidine-based EGFR inhibitors with evaluation of drug-like properties” (Eur J Med Chem, 2016):

Experiments:
[1] = target: cAMP-dependent protein kinase catalytic subunit alpha (Homo sapiens) (UniProt P17612); assay: Inhibition of PRKACA (unknown origin) at 500 nM
[2] = target: Dual specificity mitogen-activated protein kinase kinase 1 (Homo sapiens) (UniProt Q02750); assay: Inhibition of MAP2K1 (unknown origin) at 500 nM
[3] = target: MAP kinase-activated protein kinase 2 (Homo sapiens) (UniProt P49137); assay: Inhibition of MAPKAPK2 (unknown origin) at 500 nM
[4] = target: Serine/threonine-protein kinase PLK1 (Homo sapiens) (UniProt P53350); assay: Inhibition of PLK1 (unknown origin) at 500 nM
[5] = target: Insulin-like growth factor 1 receptor (Homo sapiens) (UniProt P08069); assay: Inhibition of IGF1R (unknown origin) at 500 nM
[6] = target: Fibroblast growth factor receptor 1 (Homo sapiens) (UniProt P11362); assay: Inhibition of FGFR1 (unknown origin) at 500 nM
[7] = target: Protein kinase C alpha type (Homo sapiens) (UniProt P17252); assay: Inhibition of PRKCA (unknown origin) at 500 nM
[8] = target: T1, Testis-specific serine/threonine-protein kinase 2 (Homo sapiens) (UniProt Q96PF2); assay: Inhibition of STK22B (unknown origin) at 500 nM
T1 sequence (whole entry): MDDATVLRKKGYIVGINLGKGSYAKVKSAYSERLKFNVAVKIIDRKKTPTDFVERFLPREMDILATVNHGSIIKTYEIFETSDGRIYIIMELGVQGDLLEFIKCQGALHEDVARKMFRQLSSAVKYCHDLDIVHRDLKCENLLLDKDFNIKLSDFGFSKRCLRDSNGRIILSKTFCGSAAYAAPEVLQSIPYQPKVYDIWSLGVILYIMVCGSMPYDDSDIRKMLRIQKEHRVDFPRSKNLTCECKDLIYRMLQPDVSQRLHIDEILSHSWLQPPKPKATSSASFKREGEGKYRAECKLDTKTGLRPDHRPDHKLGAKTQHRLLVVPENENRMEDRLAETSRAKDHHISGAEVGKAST

[9] = target: Macrophage colony-stimulating factor 1 receptor (Homo sapiens) (UniProt P07333); assay: Inhibition of CSF1R (unknown origin) at 500 nM
[10] = target: Tyrosine-protein kinase Fgr (Homo sapiens) (UniProt P09769); assay: Inhibition of FGR (unknown origin) at 500 nM
[11] = target: T2, Serine/threonine-protein kinase Chk1 (Homo sapiens) (UniProt O14757); assay: Inhibition of CHEK1 (unknown origin) at 500 nM
T2 sequence (whole entry): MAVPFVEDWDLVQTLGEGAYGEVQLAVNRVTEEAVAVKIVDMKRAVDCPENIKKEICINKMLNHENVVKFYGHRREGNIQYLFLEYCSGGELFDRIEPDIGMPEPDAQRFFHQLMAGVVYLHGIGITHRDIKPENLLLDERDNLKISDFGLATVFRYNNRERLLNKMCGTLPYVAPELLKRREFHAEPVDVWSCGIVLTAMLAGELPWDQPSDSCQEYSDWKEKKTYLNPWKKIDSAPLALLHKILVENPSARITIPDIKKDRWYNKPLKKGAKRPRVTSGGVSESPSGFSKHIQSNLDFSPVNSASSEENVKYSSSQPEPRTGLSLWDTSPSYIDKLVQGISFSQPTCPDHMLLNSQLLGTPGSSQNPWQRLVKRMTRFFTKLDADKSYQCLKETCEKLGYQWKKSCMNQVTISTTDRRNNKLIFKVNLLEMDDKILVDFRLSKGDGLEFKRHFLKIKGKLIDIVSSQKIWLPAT

[12] = target: Protein kinase C beta type (Homo sapiens) (UniProt P05771); assay: Inhibition of PRKCB1 (unknown origin) at 500 nM
[13] = target: Mitogen-activated protein kinase 1 (Homo sapiens) (UniProt P28482); assay: Inhibition of MAPK1 (unknown origin) at 500 nM
[14] = target: Vascular endothelial growth factor receptor 1 (Homo sapiens) (UniProt P17948); assay: Inhibition of FLT1 (unknown origin) at 500 nM
[15] = target: T3, Aurora kinase A (Homo sapiens) (UniProt O14965); assay: Inhibition of AURKA (unknown origin) at 500 nM
T3 sequence (whole entry): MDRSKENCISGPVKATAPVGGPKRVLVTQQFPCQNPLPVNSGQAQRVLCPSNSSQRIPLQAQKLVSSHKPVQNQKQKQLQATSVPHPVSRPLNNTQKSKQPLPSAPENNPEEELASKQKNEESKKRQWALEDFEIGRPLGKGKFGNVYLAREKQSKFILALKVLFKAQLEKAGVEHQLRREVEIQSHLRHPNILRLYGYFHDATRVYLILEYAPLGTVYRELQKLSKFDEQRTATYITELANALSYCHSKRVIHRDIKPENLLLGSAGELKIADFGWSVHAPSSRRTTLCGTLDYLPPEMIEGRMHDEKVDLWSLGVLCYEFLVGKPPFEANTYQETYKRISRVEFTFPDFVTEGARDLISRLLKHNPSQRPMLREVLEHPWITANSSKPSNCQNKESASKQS

[16] = target: Platelet-derived growth factor receptor alpha (Homo sapiens) (UniProt P16234); assay: Inhibition of PDGFRA (unknown origin) at 500 nM
[17] = target: Tyrosine-protein kinase HCK (Homo sapiens) (UniProt P08631); assay: Inhibition of HCK (unknown origin) at 500 nM
[18] = target: Receptor tyrosine-protein kinase erbB-4 (Homo sapiens) (UniProt Q15303); assay: Inhibition of ERBB4 (unknown origin) at 500 nM
[19] = target: Tyrosine-protein kinase Yes (Homo sapiens) (UniProt P07947); assay: Inhibition of YES1 (unknown origin) at 500 nM
[20] = target: Vascular endothelial growth factor receptor 2 (Homo sapiens) (UniProt P35968); assay: Inhibition of KDR (unknown origin) at 500 nM
[21] = target: Proto-oncogene tyrosine-protein kinase receptor Ret (Homo sapiens) (UniProt P07949); assay: Inhibition of RET (unknown origin) at 500 nM
[22] = target: Mast/stem cell growth factor receptor Kit (Homo sapiens) (UniProt P10721); assay: Inhibition of KIT (unknown origin) at 500 nM
[23] = target: Platelet-derived growth factor receptor beta (Homo sapiens) (UniProt P09619); assay: Inhibition of PDGFRB (unknown origin) at 500 nM
[24] = target: Serine/threonine-protein kinase B-raf (Homo sapiens) (UniProt P15056); assay: Inhibition of BRAF (unknown origin) at 500 nM
[25] = target: Angiopoietin-1 receptor (Homo sapiens) (UniProt Q02763); assay: Inhibition of TEK (unknown origin) at 500 nM
[26] = target: Tyrosine-protein kinase Fer (Homo sapiens) (UniProt P16591); assay: Inhibition of FER (unknown origin) at 500 nM
[27] = target: Aurora kinase B (Homo sapiens) (UniProt Q96GD4); assay: Inhibition of AURKB (unknown origin) at 500 nM
[28] = Half-life in human liver microsomes at 3 uM by LC-MS/MS analysis; format: ADME

Mitogen-activated protein kinase 1 (Homo sapiens), sequence (P28482 whole entry): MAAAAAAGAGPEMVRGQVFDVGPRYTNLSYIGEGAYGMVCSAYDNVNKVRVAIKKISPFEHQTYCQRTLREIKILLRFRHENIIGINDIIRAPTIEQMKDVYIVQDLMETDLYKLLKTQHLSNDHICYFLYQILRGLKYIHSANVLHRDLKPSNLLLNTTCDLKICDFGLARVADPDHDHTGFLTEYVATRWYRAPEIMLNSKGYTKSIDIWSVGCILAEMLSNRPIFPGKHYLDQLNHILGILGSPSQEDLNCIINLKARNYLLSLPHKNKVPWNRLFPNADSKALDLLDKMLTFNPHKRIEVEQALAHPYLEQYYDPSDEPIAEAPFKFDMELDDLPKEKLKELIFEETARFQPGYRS
Vascular endothelial growth factor receptor 1 (Homo sapiens), sequence (P17948 whole entry): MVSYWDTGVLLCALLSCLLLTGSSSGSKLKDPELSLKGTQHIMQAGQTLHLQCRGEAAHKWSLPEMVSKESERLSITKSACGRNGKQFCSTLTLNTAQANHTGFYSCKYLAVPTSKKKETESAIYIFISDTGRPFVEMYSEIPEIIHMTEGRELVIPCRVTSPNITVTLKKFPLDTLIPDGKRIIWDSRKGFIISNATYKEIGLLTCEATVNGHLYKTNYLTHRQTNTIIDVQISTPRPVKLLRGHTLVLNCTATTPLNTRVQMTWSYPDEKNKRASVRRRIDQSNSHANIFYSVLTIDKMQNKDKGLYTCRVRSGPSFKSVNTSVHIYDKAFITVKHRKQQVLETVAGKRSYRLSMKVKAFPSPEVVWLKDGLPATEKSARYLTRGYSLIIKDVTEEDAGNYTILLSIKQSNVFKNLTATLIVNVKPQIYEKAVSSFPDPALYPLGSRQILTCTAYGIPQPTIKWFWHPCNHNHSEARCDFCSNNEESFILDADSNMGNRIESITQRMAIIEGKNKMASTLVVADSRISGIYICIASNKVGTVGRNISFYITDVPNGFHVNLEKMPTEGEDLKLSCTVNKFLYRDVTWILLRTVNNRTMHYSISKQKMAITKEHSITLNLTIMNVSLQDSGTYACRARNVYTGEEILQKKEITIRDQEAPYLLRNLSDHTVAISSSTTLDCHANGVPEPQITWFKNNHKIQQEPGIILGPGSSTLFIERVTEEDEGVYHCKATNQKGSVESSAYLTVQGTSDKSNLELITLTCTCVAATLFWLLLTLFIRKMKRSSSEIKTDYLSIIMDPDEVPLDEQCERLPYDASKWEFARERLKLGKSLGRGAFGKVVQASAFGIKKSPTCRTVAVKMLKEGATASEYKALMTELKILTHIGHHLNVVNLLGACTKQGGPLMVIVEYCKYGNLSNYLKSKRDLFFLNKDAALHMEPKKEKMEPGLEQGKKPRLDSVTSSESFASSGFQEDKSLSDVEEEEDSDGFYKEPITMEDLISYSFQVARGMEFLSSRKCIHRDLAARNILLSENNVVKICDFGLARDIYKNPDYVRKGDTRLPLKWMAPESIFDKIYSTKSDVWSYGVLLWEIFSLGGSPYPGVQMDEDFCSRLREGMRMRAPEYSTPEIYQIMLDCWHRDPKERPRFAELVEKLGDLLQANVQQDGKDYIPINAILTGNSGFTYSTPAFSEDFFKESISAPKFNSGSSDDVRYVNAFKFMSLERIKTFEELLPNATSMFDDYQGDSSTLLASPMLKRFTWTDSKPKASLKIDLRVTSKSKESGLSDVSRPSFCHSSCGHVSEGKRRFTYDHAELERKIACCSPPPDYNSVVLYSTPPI
Insulin-like growth factor 1 receptor (Homo sapiens), sequence (P08069 31-736 limits assumed): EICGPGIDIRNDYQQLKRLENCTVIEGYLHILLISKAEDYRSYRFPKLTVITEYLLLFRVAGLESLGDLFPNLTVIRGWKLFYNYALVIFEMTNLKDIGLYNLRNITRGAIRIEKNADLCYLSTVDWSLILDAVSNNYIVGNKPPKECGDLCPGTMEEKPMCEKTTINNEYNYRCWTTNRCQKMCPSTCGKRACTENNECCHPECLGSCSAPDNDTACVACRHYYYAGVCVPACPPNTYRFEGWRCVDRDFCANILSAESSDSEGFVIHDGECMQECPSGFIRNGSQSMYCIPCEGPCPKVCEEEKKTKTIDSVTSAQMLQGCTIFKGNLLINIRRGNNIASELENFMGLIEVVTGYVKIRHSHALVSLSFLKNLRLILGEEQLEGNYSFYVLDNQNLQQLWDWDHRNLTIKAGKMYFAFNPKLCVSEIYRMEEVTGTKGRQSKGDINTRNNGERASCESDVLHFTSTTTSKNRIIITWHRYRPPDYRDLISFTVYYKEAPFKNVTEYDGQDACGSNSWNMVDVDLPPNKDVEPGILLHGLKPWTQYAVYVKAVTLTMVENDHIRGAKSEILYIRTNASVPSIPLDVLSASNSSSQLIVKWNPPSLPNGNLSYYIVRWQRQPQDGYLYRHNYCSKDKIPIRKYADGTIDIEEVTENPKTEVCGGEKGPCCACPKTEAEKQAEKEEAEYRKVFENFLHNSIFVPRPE
Insulin-like growth factor 1 receptor (Homo sapiens), sequence (P08069 741-1367 limits assumed): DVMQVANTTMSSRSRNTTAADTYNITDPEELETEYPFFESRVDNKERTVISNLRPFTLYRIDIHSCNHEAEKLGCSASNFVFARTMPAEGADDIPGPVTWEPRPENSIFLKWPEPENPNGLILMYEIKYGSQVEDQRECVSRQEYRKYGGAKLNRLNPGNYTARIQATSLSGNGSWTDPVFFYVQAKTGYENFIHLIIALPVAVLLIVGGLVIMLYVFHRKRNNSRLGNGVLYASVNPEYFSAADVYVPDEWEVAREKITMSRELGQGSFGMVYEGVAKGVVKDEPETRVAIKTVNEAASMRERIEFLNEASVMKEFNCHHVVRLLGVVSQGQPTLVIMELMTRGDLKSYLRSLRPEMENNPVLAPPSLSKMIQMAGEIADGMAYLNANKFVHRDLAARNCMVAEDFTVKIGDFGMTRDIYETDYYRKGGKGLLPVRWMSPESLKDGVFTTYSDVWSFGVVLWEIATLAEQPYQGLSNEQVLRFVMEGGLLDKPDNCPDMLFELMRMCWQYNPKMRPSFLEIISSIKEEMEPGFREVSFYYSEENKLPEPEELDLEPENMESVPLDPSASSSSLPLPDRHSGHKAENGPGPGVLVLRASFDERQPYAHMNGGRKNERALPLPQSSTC
Protein kinase C beta type (Homo sapiens), sequence (P05771 2-671 limits assumed): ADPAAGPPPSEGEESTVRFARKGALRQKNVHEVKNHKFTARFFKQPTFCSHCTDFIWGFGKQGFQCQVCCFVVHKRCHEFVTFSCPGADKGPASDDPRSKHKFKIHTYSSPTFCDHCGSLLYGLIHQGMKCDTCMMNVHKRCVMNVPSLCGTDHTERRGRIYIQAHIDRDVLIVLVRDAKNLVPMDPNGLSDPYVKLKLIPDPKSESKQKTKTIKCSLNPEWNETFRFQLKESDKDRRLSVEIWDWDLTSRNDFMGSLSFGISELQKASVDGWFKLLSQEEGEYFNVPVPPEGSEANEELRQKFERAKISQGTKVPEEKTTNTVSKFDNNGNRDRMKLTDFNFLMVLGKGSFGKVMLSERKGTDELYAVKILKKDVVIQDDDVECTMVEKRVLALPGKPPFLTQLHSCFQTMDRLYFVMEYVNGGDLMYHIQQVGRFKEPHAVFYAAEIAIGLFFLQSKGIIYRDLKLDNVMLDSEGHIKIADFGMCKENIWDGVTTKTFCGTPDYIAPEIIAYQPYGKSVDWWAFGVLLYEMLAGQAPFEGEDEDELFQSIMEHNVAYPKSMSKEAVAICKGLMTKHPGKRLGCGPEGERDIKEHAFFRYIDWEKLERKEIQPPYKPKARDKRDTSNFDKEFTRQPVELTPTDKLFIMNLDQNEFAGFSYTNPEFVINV
Platelet-derived growth factor receptor alpha (Homo sapiens), sequence (P16234 whole entry): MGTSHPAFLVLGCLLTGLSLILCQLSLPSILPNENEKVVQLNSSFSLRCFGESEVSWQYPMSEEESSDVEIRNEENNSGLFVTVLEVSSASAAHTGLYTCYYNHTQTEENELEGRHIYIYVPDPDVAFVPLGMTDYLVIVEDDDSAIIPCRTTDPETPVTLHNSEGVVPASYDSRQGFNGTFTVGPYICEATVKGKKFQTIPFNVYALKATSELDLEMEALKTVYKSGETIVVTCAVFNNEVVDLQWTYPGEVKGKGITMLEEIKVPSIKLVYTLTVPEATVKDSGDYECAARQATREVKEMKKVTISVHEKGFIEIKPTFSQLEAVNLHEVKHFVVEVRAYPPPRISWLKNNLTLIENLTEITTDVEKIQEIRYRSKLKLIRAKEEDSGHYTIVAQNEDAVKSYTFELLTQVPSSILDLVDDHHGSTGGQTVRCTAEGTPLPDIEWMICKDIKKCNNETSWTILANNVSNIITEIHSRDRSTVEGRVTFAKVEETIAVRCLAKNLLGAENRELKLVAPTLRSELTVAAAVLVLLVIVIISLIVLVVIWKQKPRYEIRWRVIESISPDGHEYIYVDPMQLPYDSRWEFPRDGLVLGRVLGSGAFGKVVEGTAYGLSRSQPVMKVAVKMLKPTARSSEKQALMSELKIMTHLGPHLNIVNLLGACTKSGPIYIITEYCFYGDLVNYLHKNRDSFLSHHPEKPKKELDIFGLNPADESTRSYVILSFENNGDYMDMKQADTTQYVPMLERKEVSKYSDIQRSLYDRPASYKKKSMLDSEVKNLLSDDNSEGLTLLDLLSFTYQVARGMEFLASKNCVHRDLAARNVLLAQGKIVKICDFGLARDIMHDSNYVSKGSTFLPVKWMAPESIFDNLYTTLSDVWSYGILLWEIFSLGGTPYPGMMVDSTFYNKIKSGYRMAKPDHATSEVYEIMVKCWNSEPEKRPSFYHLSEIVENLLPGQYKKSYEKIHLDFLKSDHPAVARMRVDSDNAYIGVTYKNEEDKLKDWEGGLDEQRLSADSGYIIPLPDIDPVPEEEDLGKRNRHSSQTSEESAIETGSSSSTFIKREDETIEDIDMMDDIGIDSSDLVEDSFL

SMILES | inhibition [1] | inhibition [2] | inhibition [4] | inhibition [5] | inhibition [6] | inhibition [7] | inhibition [8] | inhibition [9] | inhibition [10] | inhibition [12] | inhibition [13] | inhibition [14] | inhibition [15] | inhibition [16] | inhibition [17] | inhibition [18] | inhibition [19] | inhibition [20] | inhibition [21] | inhibition [23] | other results
C[C@@H](Nc1ncnc2sc(-c3ccccc3C(N)=O)cc12)c1ccccc1 | -8% | 3% | -3% | -6% | -6% | 8% | 5% | 3% | 2% | 3% | 9% | 4% | 6% | -7% | 2% | 10% | 10% | -4% | -5% | 6% | inhibition [3]: -8%; inhibition [11]: -4%; inhibition [22]: -7%; inhibition [24]: 21%; inhibition [25]: 0%; inhibition [26]: -4%; inhibition [27]: 2%
C[C@@H](Nc1ncnc2sc(-c3ccc(C(=O)NCCN(C)C)cc3)cc12)c1ccccc1 | -6% | 6% | 1% | -6% | -7% | 0% | 11% | 8% | 18% | 2% | 9% | 1% | 3% | 15% | 3% | 14% | 23% | 6% | -2% | 6% | inhibition [11]: -6%; inhibition [22]: -5%; inhibition [24]: 23%; inhibition [25]: 3%; inhibition [26]: -4%; inhibition [27]: 17%
C#Cc1cccc(Nc2ncnc3sc(-c4ccc(CO)cc4OC)cc23)c1 | -1% | 3% | -8% | -8% | -6% | -7% | 2% | -1% | 11% | -2% | 1% | -7% | 14% | -9% | -4% | 12% | 8% | 8% | 0% | 13% | inhibition [11]: -3%; inhibition [24]: 16%; inhibition [25]: -1%; inhibition [26]: -2%; inhibition [27]: 21%
COc1cc(CO)ccc1-c1cc2c(Nc3ccc(F)c(Cl)c3)ncnc2s1 | 8% | 12% | 6% | -3% | -7% | 2% | 1% | 4% | 11% | -2% | 6% | 2% | -6% | 5% | 15% | 31% | 14% | 3% | 16% | -3% | inhibition [3]: 3%; half-life at 3 µM [28]: 2.6 h; inhibition [22]: 1%; inhibition [24]: 3%; inhibition [25]: 11%; inhibition [26]: -1%; inhibition [27]: 7%
